From patent US20240166599A1, “INDOLE DERIVATIVES AS SEROTONERGIC AGENTS USEFUL FOR THE TREATMENT OF DISORDERS RELATED THERETO” (Mindset Pharma Inc., priority 2021, published 2024)

Legend:
[1] = molecular target: T1, human 5-HT2A (h5-HT2A) receptor (Homo sapiens, UniProt P28223); test: FLIPR assay, human 5-HT2A, agonist mode; type: cell-based
T1 construct: expressed in transfected cells
Experimental: I.c. Experimental Methods and Procedures: • 1. […] One day before the assays, the cells were detached using TrypLE™ Express and cells were counted using cell counter. […] 20000 cells/well were seeded in 30 μl/well culture medium to a 384-well cell plate and cells were incubated overnight at 37° C., 5% (v/v) CO2. • 4. On the assay day, 2×dye solution was prepared following the manual of the FLIPR® Calcium 6 Assay Kit: i. The dye was diluted with assay buffer (20 mM HEPES in 1×HBSS, PH7.4); ii. Probenecid was added to the final concentration of 5 mM; iii. […] Medium was removed from cell plate by flicking the cell plate on towel papers. • 6. […] The cell plate was placed on plate shaker, the plate was agitated at 600 rpm for 2 minutes. The plate was incubated at 37° C. for 2 hours followed by additional 15-minute incubation at 25° C. • 8. 3×compound in assay buffer was prepared: a. Reference compounds were diluted to required concentration with DMSO. The compounds were added to a 384-well compound plate; b. Serial dilutions were performed; c. 10 mM test compounds were added to the compound plate, and 3-fold serial dilutions were performed. d. […] Add 20 μl/well assay buffer to the compound plate; f. […] The cell plate, compound plate and tips were put into FLIPR, 10 μl of 3× compound was transferred to the cell plate per well with FLIPR.
• i. […] Calculated the percentage activation by using following equation: […]

[2] = molecular target: human 5-HT2A receptor (Homo sapiens, UniProt P28223); test: biochemical
Sequence of human 5-HT2A receptor (P28223 whole entry): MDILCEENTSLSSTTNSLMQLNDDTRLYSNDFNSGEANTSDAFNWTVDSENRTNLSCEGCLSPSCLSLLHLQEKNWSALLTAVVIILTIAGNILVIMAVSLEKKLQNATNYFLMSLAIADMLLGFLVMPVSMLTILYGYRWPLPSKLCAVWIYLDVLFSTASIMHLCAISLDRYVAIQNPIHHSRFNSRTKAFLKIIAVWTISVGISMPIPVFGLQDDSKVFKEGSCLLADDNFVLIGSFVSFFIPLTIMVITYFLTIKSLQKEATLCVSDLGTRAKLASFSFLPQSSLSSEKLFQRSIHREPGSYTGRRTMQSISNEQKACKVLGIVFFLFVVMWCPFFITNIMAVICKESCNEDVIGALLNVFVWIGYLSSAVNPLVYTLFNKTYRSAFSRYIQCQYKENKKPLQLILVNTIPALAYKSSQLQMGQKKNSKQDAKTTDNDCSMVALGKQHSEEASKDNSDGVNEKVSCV
Experimental: Human 5-HT2A: Radioligand Binding Assay:
II.3 Experiment Procedure: • i. Prepared the assay buffer following the table below;
• ii. Preparation of 8 doses of reference and test compounds starting from 10 mM stock solution as requested by 5-fold serial dilutions with 100%; • iii. Prepared (v/v) DMSO: a. 50 μl/well of 0.5% (v/v) PEI was added to UniFilter-96 GF/B plates. The plates were sealed and incubates at 4° C. for 3 hrs; b. After incubation, the plates were washed 3 times with ice-cold wash buffer (50 mM Tris, pH7.4); • iv. Preparation of assay plates: a. Cell membrane were diluted with assay buffer and 330 μl/well was added to 96 round deep well plates to reach a concentration of 20 μg/well; b. 8 concentrations of reference or test compounds were prepared and 110 μl/well was added to 96 round deep well plates; c. [3H]-ketanserin was diluted with assay buffer to 5 nM (5× final concentration) and 110 μl/well was added to 96 round deep well plates. • v. The plate was centrifuged at 1000 rpm for 30 secs and then agitated at 600 rpm, R.T. for 5 min. • vi. The plates were sealed and incubates at 27° C. for 90 min. • vii. The incubation was stopped by vacuum filtration onto GF/B filter plates followed by 4 times washing with ice-cold wash buffer (50 mM Tris, pH7.4). • viii. […] The filter plates were sealed and 40 μl/well of scintillation cocktail was added. • x. The plate was read by using a Microbeta2 microplate counter.
For reference and test compounds, the results are expressed as % Inhibition, using the normalization equation: N=100−100×(U−C2)/(C1−C2), where U is the unknown value, C1 is the average of high controls, and C2 is the average of low controls.

[3] = Liver microsomes stability, mouse; conditions: for half-life at 2 μM / microsomal CLint at 2 μM: male, mouse, microsomes; for Remaining Percentage (%) after 60 min, Mouse: mouse liver microsomes with NADPH, 2 μM
Experimental: (§1) The objective of this study was to estimate in vitro metabolic stability of representative compounds of the application in pooled human and male mouse liver microsomes. The concentrations of parent compounds in reaction systems were evaluated by LC-MS/MS for estimating the stability in pooled human and male mouse liver microsomes. The in vitro intrinsic clearances of test compounds were determined as well.
(§2) A master solution in the “Incubation Plate” containing phosphate buffer, ultra-pure H2O, MgCl2 solution and liver microsomes was made according to Table 3. The mixture was pre-warmed at 37° C. water bath for 5 minutes.
(§3) 40 μL of 10 mM NADPH solution was added to each well. The final concentration of NADPH was 1 mM. The negative control samples were prepared by replacing NADPH with 40 μL of ultra-pure H2O. Samples were prepared in duplicate. Negative controls were prepared in singlet.
(§4) The reaction was started with the addition of 4 μL of 200 μM test compounds or control compounds to each master solution to get the final concentration of 2 μM. This study was performed in duplicate.
(§5) Aliquots of 50 μL were taken from the reaction solution at 0, 15, 30, 45 and 60 minutes. The reaction solutions were stopped by the addition of 4 volumes of cold methanol with IS (100 nM alprazolam, 200 nM imipramine, 200 nM labetalol and 2 μM ketoprofen). Samples were centrifuged at 3,220 g for 40 minutes. Aliquot of 90 μL of the supernatant was mixed with 90 μL of ultra-pure H2O and then was used for LC-MS/MS analysis.
(§6) LC/MS analysis was performed for all samples from this study using a Shimadzu liquid chromatograph separation system equipped with degasser DGU-20A5R; solvent delivery unit LC-30AD; system controller SIL-30AC; column oven CTO-30A; CTC Analytics HTC PAL System. Mass spectrometric analysis was performed using an Triple Quad™ 5500 instrument.
(§7) All calculations were carried out using Microsoft Excel. Peak areas were determined from extracted ion chromatograms. The slope value, k, was determined by linear regression of the natural logarithm of the remaining percentage of the parent drug vs. incubation time curve.
(§8) The in vitro half-life (in vitro t1/2) was determined from the slope value:
(§9) Conversion of the in vitro t1/2 (min) into the in vitro intrinsic clearance (in vitro CLint, in μL/min/mg proteins) was done using the following equation (mean of duplicate determinations): […]

[4] = Liver microsomes stability, rat; conditions: for Remaining Percentage (%) after 60 min, Rat: rat liver microsomes with NADPH, 2 μM; for half-life at 2 μM / microsomal CLint at 2 μM: rat, microsomes
[5] = Liver microsomes stability, human; conditions: for Remaining Percentage (%) after 60 min, Human: human liver microsomes with NADPH, 2 μM; for half-life at 2 μM / microsomal CLint at 2 μM: human, microsomes
Experimental: as §1, §2, §3, §4, §5, §6, §7, §8, §9

T1 sequence (P28223 whole entry): as above

CN(C)CCc1c[nH]c2ccccc12 [DMT, N,N-dimethyltryptamine, reference compound]
EC50 [1]: < 1000 nM | IC50 [2]: < 500 nM

[2H]C([2H])([2H])N(C([2H])([2H])[2H])C([2H])([2H])C([2H])([2H])c1c[nH]c2ccccc12 [I-A-1, 2-(1H-indol-3-yl)-N,N-bis(methyl-d3)ethan-1-amine-1,1,2,2-d4]
half-life at 2 μM [3]: 87.2 min | microsomal CLint at 2 μM [3]: 39.2 µL/min/mg | Remaining Percentage (%) after 60 min, Mouse [3]: 62.07% | EC50 [1]: < 1000 nM | IC50 [2]: < 500 nM | Remaining Percentage (%) after 60 min, Rat [4]: 9.38% | half-life at 2 μM [4]: 17.6 min | microsomal CLint at 2 μM [4]: 39.7 µL/min/mg | Remaining Percentage (%) after 60 min, Human [5]: 0.46% | half-life at 2 μM [5]: 7.73 min | microsomal CLint at 2 μM [5]: 19 µL/min/mg

[2H]c1[nH]c2c([2H])c([2H])c([2H])c([2H])c2c1CCN(C)C [I-A-2, 2-(1H-indol-3-yl-2,4,5,6,7-d5)-N,N-dimethylethan-1-amine]
half-life at 2 μM [3]: 17.4 min | microsomal CLint at 2 μM [3]: 41.2 µL/min/mg | Remaining Percentage (%) after 60 min, Mouse [3]: 59.38% | EC50 [1]: < 1000 nM | IC50 [2]: < 500 nM | Remaining Percentage (%) after 60 min, Rat [4]: 17.65% | half-life at 2 μM [4]: 24 min | microsomal CLint at 2 μM [4]: 36 µL/min/mg | Remaining Percentage (%) after 60 min, Human [5]: 0.76% | half-life at 2 μM [5]: 8.52 min | microsomal CLint at 2 μM [5]: 18.8 µL/min/mg

[2H]C([2H])([2H])Oc1ccc2[nH]cc(C([2H])([2H])C([2H])([2H])N(C([2H])([2H])[2H])C([2H])([2H])[2H])c2c1 [I-A-6, 2-(5-(methoxy-d3)-1H-indol-3-yl)-N,N-bis(methyl-d3)ethan-1-amine-1,1,2,2-d4]
half-life at 2 μM [3]: 97.5 min | microsomal CLint at 2 μM [3]: 36.8 µL/min/mg | Remaining Percentage (%) after 60 min, Mouse [3]: 65.29% | Remaining Percentage (%) after 60 min, Rat [4]: 5.25% | half-life at 2 μM [4]: 9.88 min | microsomal CLint at 2 μM [4]: 9.26 µL/min/mg | Remaining Percentage (%) after 60 min, Human [5]: 15.50% | half-life at 2 μM [5]: 2.3 min | microsomal CLint at 2 μM [5]: 16.4 µL/min/mg
